Data reported in the supplement of paper PMC10307832.

How the values were obtained:
Test in all cases: relative viability (nuclei count vs DMSO), 5 days (fraction); higher = more cells survive
HCC-366 = tested on: HCC-366
Outline: (§1)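 Lung cancer cell lines in 1536-well plates were dosed by pin tool the day after seeding, either with one drug alone or with a fixed anchor-drug dose plus five library-drug doses (not always all listed) in √10 steps. After 5 days, cells were fixed and their nuclei stained in one step (final 0.05% Triton X-100, 1% formaldehyde, 1 ug/ml Hoechst), then counted on 4× images. Relative viability is the nuclei count in treated wells divided by that in vehicle wells. Values are medians of duplicate plates.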

NCI-H1395 = tested on: NCI-H1395
Outline: as §1

NCI-H1623 = tested on: NCI-H1623
Outline: as §1

HCC-78 = tested on: HCC-78
Outline: as §1

NCI-H1648 = tested on: NCI-H1648
Outline: as §1

EMC-BAC-2 = tested on: EMC-BAC-2
Outline: as §1

LCLC-97TM1 = tested on: LCLC-97TM1
Outline: as §1

In the case of `Cc1csc(=NC2CCCCC2)n1/N=C/c1ccc(O)c(O)c1O` [MIM1] + COc1cccc2cc(-c3nc([C@H]4CC[C@H](C(=O)O)CC4)n4ncnc(N)c34)[nH]c12 [OSI-027] (partner 0.5 µM), the relative viability (HCC-366; first compound 0.2 µM) is reported as 0.852, the relative viability (HCC-366; first compound 2 µM) is reported as 0.677 and the relative viability (HCC-366; first compound 6.325 µM) is reported as 0.186. For the same molecule, the relative viability (HCC-366; first compound 20 µM) was 0.0446, the relative viability (NCI-H1395; first compound 0.2 µM) was 0.592 and the relative viability (NCI-H1395; first compound 0.6325 µM) was 0.63. It also gave a relative viability (NCI-H1395; first compound 2 µM) of 0.618, a relative viability (NCI-H1395; first compound 6.325 µM) of 0.508 and a relative viability (NCI-H1395; first compound 20 µM) of 0.374. It also gave a relative viability (NCI-H1623; first compound 0.2 µM) of 0.435, a relative viability (NCI-H1623; first compound 0.6325 µM) of 0.416 and a relative viability (NCI-H1623; first compound 2 µM) of 0.412. It also gave a relative viability (NCI-H1623; first compound 6.325 µM) of 0.36, a relative viability (NCI-H1623; first compound 20 µM) of 0.383 and a relative viability (HCC-78; first compound 0.2 µM) of 0.365. It also gave a relative viability (HCC-78; first compound 0.6325 µM) of 0.356, a relative viability (HCC-78; first compound 2 µM) of 0.303 and a relative viability (HCC-78; first compound 6.325 µM) of 0.384. For the same molecule, the relative viability (HCC-78; first compound 20 µM) was 0.468, the relative viability (NCI-H1648; first compound 0.2 µM) was 0.246 and the relative viability (NCI-H1648; first compound 0.6325 µM) was 0.272. It also gave a relative viability (NCI-H1648; first compound 2 µM) of 0.28, a relative viability (NCI-H1648; first compound 6.325 µM) of 0.275 and a relative viability (NCI-H1648; first compound 20 µM) of 0.226. The relative viability (EMC-BAC-2; first compound 0.2 µM) was 0.422, the relative viability (EMC-BAC-2; first compound 0.6325 µM) was 0.36 and the relative viability (EMC-BAC-2; first compound 2 µM) was 0.357. For the same molecule, the relative viability (EMC-BAC-2; first compound 6.325 µM) was 0.344, the relative viability (EMC-BAC-2; first compound 20 µM) was 0.253 and the relative viability (LCLC-97TM1; first compound 0.2 µM) was 0.437. For the same molecule, the relative viability (LCLC-97TM1; first compound 0.6325 µM) was 0.455, the relative viability (LCLC-97TM1; first compound 2 µM) was 0.508 and the relative viability (LCLC-97TM1; first compound 6.325 µM) was 0.503. For the same molecule, the relative viability (LCLC-97TM1; first compound 20 µM) was 0.193.
`Cc1csc(=NC2CCCCC2)n1/N=C/c1ccc(O)c(O)c1O` [MIM1] + Cc1cc(Nc2cc(N3CCN(C)CC3)nc(Sc3ccc(NC(=O)C4CC4)cc3)n2)n[nH]1 [Tozasertib] (partner 0.1 µM) was tested, and the relative viability (HCC-366; first compound 0.2 µM) was 0.147, the relative viability (HCC-366; first compound 2 µM) was 0.134 and the relative viability (HCC-366; first compound 6.325 µM) was 0.026. It also gave a relative viability (HCC-366; first compound 20 µM) of 0.0212, a relative viability (NCI-H1395; first compound 0.2 µM) of 0.742 and a relative viability (NCI-H1395; first compound 0.6325 µM) of 0.791. The relative viability (NCI-H1395; first compound 2 µM) was 0.784, the relative viability (NCI-H1395; first compound 6.325 µM) was 0.68 and the relative viability (NCI-H1395; first compound 20 µM) was 0.374. For the same molecule, the relative viability (NCI-H1623; first compound 0.2 µM) was 0.454, the relative viability (NCI-H1623; first compound 0.6325 µM) was 0.402 and the relative viability (NCI-H1623; first compound 2 µM) was 0.43. For the same molecule, the relative viability (NCI-H1623; first compound 6.325 µM) was 0.339, the relative viability (NCI-H1623; first compound 20 µM) was 0.352 and the relative viability (HCC-78; first compound 0.2 µM) was 0.461. It also gave a relative viability (HCC-78; first compound 0.6325 µM) of 0.288, a relative viability (HCC-78; first compound 2 µM) of 0.454 and a relative viability (HCC-78; first compound 6.325 µM) of 0.39. It also gave a relative viability (HCC-78; first compound 20 µM) of 0.337, a relative viability (NCI-H1648; first compound 0.2 µM) of 0.371 and a relative viability (NCI-H1648; first compound 0.6325 µM) of 0.369. For the same molecule, the relative viability (NCI-H1648; first compound 2 µM) was 0.374, the relative viability (NCI-H1648; first compound 6.325 µM) was 0.326 and the relative viability (NCI-H1648; first compound 20 µM) was 0.172. The relative viability (EMC-BAC-2; first compound 0.2 µM) was 0.219, the relative viability (EMC-BAC-2; first compound 0.6325 µM) was 0.3 and the relative viability (EMC-BAC-2; first compound 2 µM) was 0.273. The relative viability (EMC-BAC-2; first compound 6.325 µM) was 0.272, the relative viability (EMC-BAC-2; first compound 20 µM) was 0.202 and the relative viability (LCLC-97TM1; first compound 0.2 µM) was 0.285. It also gave a relative viability (LCLC-97TM1; first compound 0.6325 µM) of 0.237, a relative viability (LCLC-97TM1; first compound 2 µM) of 0.292 and a relative viability (LCLC-97TM1; first compound 6.325 µM) of 0.192. For the same molecule, the relative viability (LCLC-97TM1; first compound 20 µM) was 0.109.
`Cc1cn(-c2cc(NC(=O)c3ccc(C)c(Nc4nccc(-c5cccnc5)n4)c3)cc(C(F)(F)F)c2)cn1` [Nilotinib] + COc1cccc2cc(-c3nc([C@H]4CC[C@H](C(=O)O)CC4)n4ncnc(N)c34)[nH]c12 [OSI-027] (partner 0.5 µM) showed a relative viability (HCC-366; first compound 0.001 µM) of 0.644, a relative viability (HCC-366; first compound 0.003162 µM) of 0.93 and a relative viability (HCC-366; first compound 0.01 µM) of 0.663. It also gave a relative viability (HCC-366; first compound 0.03162 µM) of 0.203, a relative viability (HCC-366; first compound 0.1 µM) of 0.147 and a relative viability (NCI-H1395; first compound 0.001 µM) of 0.673. For the same molecule, the relative viability (NCI-H1395; first compound 0.003162 µM) was 0.467, the relative viability (NCI-H1395; first compound 0.01 µM) was 0.579 and the relative viability (NCI-H1395; first compound 0.03162 µM) was 0.612. For the same molecule, the relative viability (NCI-H1395; first compound 0.1 µM) was 0.416, the relative viability (NCI-H1623; first compound 0.001 µM) was 0.395 and the relative viability (NCI-H1623; first compound 0.003162 µM) was 0.422. It also gave a relative viability (NCI-H1623; first compound 0.01 µM) of 0.444, a relative viability (NCI-H1623; first compound 0.03162 µM) of 0.432 and a relative viability (NCI-H1623; first compound 0.1 µM) of 0.423. For the same molecule, the relative viability (HCC-78; first compound 0.001 µM) was 0.444, the relative viability (HCC-78; first compound 0.003162 µM) was 0.368 and the relative viability (HCC-78; first compound 0.01 µM) was 0.352. The relative viability (HCC-78; first compound 0.03162 µM) was 0.373, the relative viability (HCC-78; first compound 0.1 µM) was 0.403 and the relative viability (NCI-H1648; first compound 0.003162 µM) was 0.257. It also gave a relative viability (NCI-H1648; first compound 0.01 µM) of 0.257, a relative viability (NCI-H1648; first compound 0.03162 µM) of 0.256 and a relative viability (NCI-H1648; first compound 0.1 µM) of 0.253. It also gave a relative viability (EMC-BAC-2; first compound 0.001 µM) of 0.348, a relative viability (EMC-BAC-2; first compound 0.003162 µM) of 0.387 and a relative viability (EMC-BAC-2; first compound 0.01 µM) of 0.426. For the same molecule, the relative viability (EMC-BAC-2; first compound 0.03162 µM) was 0.345, the relative viability (EMC-BAC-2; first compound 0.1 µM) was 0.354 and the relative viability (LCLC-97TM1; first compound 0.001 µM) was 0.552. It also gave a relative viability (LCLC-97TM1; first compound 0.003162 µM) of 0.559, a relative viability (LCLC-97TM1; first compound 0.01 µM) of 0.479 and a relative viability (LCLC-97TM1; first compound 0.03162 µM) of 0.432. The relative viability (LCLC-97TM1; first compound 0.1 µM) was 0.467.
